Laboratory results from patent publication US20140187594A1, “DIPHENYL ETHER COMPOUNDS FOR THE TREATMENT OF LIVER, LUNG DISORDERS, DIABETIC COMPLICATIONS AND CARDIOVASCULAR DISEASES” (ORCHID CHEMICALS AND PHARMACEUTICALS LTD, priority 2010, published 2014).

Experiments:
[1] = system: human endothelial cells (ECV 304); assay: Selectivity of apoptosis induction: endothelial cells; format: cell-based; details: ECV 304, PI staining
Experimental: (§1) Propidium iodide (PI) has been widely used to measure apoptosis in different experimental systems (Eur. J. Pharmacol., 2003, 473, 117-125; Br. J. Pharmacol., 2009, 158, 1720-1734). The LX2 cells were treated with vehicle (DMSO), staurosporine (0.1 nM), compound of formula (B) (2 μM), compound of formula (C) (2 μM) for 8 hours followed by propidium iodide (PI) for 10 minute. Next, cells were washed with PBS for 2 times to remove unbound PI and the fluorescence images were acquired with DP71 camera adapted to an Olympus IX71 microscope. Apoptotic cells were detected by propidium iodide (PI) staining and % apoptotic cells per field were estimated. Number of PI positive cells and total number of cells were counted from the images and plotted as percentage of apoptotic cells per field.
(§2) The methodology adopted is same as in Experiment-7 above.
(§3) Apoptotic cells were detected by propidium iodide (PI) staining and % apoptotic cells per field were estimated.

[2] = biological target: T1, Matrix metalloproteinase-2 (MMP-2) (Homo sapiens, UniProt P08253); assay: Matrix metalloproteinase-2 (MMP-2) inhibitory activity; format: biochemical
T1 sequence (P08253 110-660): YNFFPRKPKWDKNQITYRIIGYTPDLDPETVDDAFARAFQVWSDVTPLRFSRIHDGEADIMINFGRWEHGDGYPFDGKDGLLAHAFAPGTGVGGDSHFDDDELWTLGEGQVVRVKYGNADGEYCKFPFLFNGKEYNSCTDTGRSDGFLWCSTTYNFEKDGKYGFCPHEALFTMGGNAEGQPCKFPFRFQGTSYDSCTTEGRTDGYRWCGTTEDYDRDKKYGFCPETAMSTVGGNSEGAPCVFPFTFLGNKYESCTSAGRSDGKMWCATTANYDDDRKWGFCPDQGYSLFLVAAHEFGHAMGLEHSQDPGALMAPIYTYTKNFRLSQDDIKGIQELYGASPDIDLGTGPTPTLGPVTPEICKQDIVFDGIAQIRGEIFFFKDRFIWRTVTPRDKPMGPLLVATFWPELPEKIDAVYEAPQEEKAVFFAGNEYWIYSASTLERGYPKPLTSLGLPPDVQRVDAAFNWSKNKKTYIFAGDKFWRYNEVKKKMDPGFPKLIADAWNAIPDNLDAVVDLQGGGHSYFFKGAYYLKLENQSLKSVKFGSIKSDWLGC
Experimental: 3. Matrix Metalloproteinase-2 (MMP-2) Inhibitory Activity (at 10 μM)
MMP-2 enzymes are implicated in lung metastasis and there inhibition is useful to prevent or treat lung metastasis (Journal of Ethnopharmacology 2011, 133, 426-433).

3T3-L1 fibroblasts = assay: Adipogenesis in 3T3-L1 mouse fibroblast (oil red O staining); format: cell-based; details: 1 μM or 10 μM, 7 days
Experimental: 3T3-L1 fibroblasts were seeded at a concentration of 10,000 cells/well in 24 well tissue culture plates in a total volume of 1 mL Dulbecco's Modified Eagle Medium (DMEM media) containing 10% fetal bovine serum, penicillin and streptomycin. […] After every two days, the media contents were replaced with fresh media and the drug. This process was carried out for 7 days. After 7 days of treatment, the cells were fixed in 10% formalin for 1 hour at […], stained with oil red 0 solution for 10 minutes and washed 6 times with 1×PBS to remove the excess stain. The plates were dried and visualized under 40× objective using Nikon E200 microscope and the pictures were taken by Nikon DXM 1200C digital camera.

[3] = system: Hepatic stellate cells (LX2); assay: Induction of apoptosis in hepatic stellate cells (LX2), propidium iodide staining; format: cell-based; details: 8 hours, PI staining
From the text: as §1, with “The LX2 cells were treated with vehicle (DMSO), staurosporine (0.1 nM), compound of formula (B) (2 μM), compound of formula (C) (2 μM) for 8 hours followed by propidium iodide (PI) for 10 minute.” left out

[4] = system: human hepatocytes (HepG2); assay: Selectivity of apoptosis induction: hepatocytes; format: cell-based; details: HepG2, PI staining
collagen type 1 = assay: Collagen type 1 secretion in activated hepatic stellate cells (western blot); format: cell-based; details: overnight incubation, FIGS. 35a & 35b
Experimental: HSC cells were treated with the drugs and incubated overnight. The conditioned media was taken out and the secreted proteins were extracted using TCA-acetone method. The cells were harvested for western blot analysis and 1% SDS was added to the sample. Proteins were detected by using 1:500 dilution of polyclonal antibody to collagen type 1 (Abcam; AB292) and 1:1000 dilutions of goat anti-rabbit IgG conjugated to horseradish peroxidase (Bangalore GENEI). The blots were developed by using substrate TMB/H2O2. Loading control was performed using the β-actin house keeping gene expression level.

[5] = biological target: T2, Rat lens Aldose reductase (Rattus norvegicus, UniProt P07943); assay: Aldose reductase inhibitory activity; format: biochemical; details: rat lens enzyme, 0.2 mM NADPH, pH 6.2, 25° C.
T2 construct: Rat lens Aldose reductase is used; from tissue; host or cells: rat lens
Experimental: Rat lens Aldose reductase is used. Test compound and/or vehicle is preincubated with 3000 μg/ml enzyme (J. Enzyme Inhib. 1993, 7, 249-256; Biol. Pharm. Bull. 1994, 17, 458-459) and 0.2 mM NADPH in phosphate buffer pH 6.2 for 15 minutes at 25° C. The reaction is initiated by addition of 10 mM DL-glyceraldehyde and incubated for another 20 minutes. Determination of the amount of NADPH remained is read spectrophotometrically. Compounds are screened at 10 μM. Since enzyme activity may change from lot to lot, the concentration used will be adjusted if necessary.

[6] = system: human fibroblast cells isolated from skin biopsies; assay: Selectivity of apoptosis induction: skin fibroblasts; format: cell-based; details: PI staining
Experimental: as §1, §2, §3

[7] = 48 weeks, 4 mg twice daily; Hepatology, 2003, 38, 1008-1017; cited from earlier work

Structure (SMILES) | apoptosis vs vehicle (DMSO) [1] | inhibition at 10 µM [2] [%] | adipogenesis (intracellular lipids stained with oil red O) (3T3-L1 fibroblasts) | % apoptotic cells per field ([3]; 2 μM) [%] | apoptosis vs vehicle (DMSO) [4] | Collagen secretion by activated hepatic stellate cells (collagen type 1) | IC50 [5] [µM] | apoptosis vs vehicle (DMSO) [6] | % apoptotic cells per field ([3]; 0.1 nM) | median weight gain increase [7] [%] | patients in whom weight gain occurred [7] [%]
N[C@@H](Cc1ccc(Oc2ccc(CC3SC(=O)NC3=O)cc2)cc1)C(=O)O (stereo partly drawn) [Compound of formula (B), (2S)-2-Amino-3-(4-{4-[(2,4-dioxo-1,3-thiazolidin-5-yl)methyl]phenoxy}phenyl)propanoic acid] | no significant apoptosis | 59 | did not induce adipogenesis | 6±0.40 | no significant apoptosis | markedly decreased | 4.92 | no significant apoptosis |  |  | 
CN[C@@H]1C[C@H]2O[C@@](C)([C@@H]1OC)n1c3ccccc3c3c4c(c5c6ccccc6n2c5c31)C(=O)NC4 [staurosporine, reference compound] |  |  |  |  |  |  |  |  | approximately 23% |  | 
O=C(O)Cc1ccc(Oc2ccc(CC3SC(=O)NC3=O)cc2)cc1 (stereo not shown) [Compound of formula (C), (4-{4-[(2,4-Dioxo-1,3-thiazolidin-5-yl)methyl]phenoxy}phenyl)acetic acid] | no significant apoptosis | 16 | did not induce adipogenesis | 7.5±0.64 | no significant apoptosis | markedly decreased | 1.43 | no significant apoptosis |  |  | 
CN(CCOc1ccc(CC2SC(=O)NC2=O)cc1)c1ccccn1 (stereo not shown) [Rosiglitazone] |  |  |  |  |  |  |  |  |  | 7.3 | 67
